Common to all, as to format: in vivo
Series [1] in a line: Pharmacokinetic study in mice, oral (brain and blood levels by LC/MS/MS). Particulars: male, mouse, C57BL/6 mice, oral 10 mg/kg, brain.
The subject of series [2] is Aβ plaques. The series is described as follows: Immunohistochemistry of Aβ plaques (4G8 antibody), 3×Tg mice. Particulars: 50 mg/kg oral 7 months. The procedure: (§1) Homozygous 3×Tg mice (APP KM670/671NL (Swedish), MAPT P301L, PSEN1 M146V) were produced in Hong Kong Baptist University animal house and maintained at 23±2° C. temperature, 60±15% relative humidity with free access to food and water ad libitum.
Brain sections (30 μm) were cut on a microtome and stored at 4° C. in PBS+0.1% sodium azide. Sections were permeabilized for 10 min with cold PBS containing 0.5% Triton X-100 and blocked with 3% bovine serum albumin for 1 h at room temperature.

The test system of series [3] is APP, APP CTFs, Aβ, LC3-II. The experiment in a line: Western blotting of brain tissue, 5×FAD mice. The method, then:
5×FAD male mice were inbred with wild-type (WT, C57/BL6) female mice to produce heterozygous offspring. Offspring were genotyped to select 5×FAD (APP KM670/671NL (Swedish), APP I716V (Florida), APP V717I (London), PSEN1 M146L (A>C), PSEN1 L286V) gene mutations mice.
(§2) Brain tissues were lysed with RIPA buffer (TBS with 1% NP-40, 1% sodium deoxycholic acid, 0.1% SDS, and protease phosphatase inhibitor cocktails) and centrifuged at 15,000 RPM for 30 min. Supernatant is collected and the pellets were further lysed with 2% SDS in RIPA buffer. Protein concentration was estimated by BCA assay. […] Protein chemiluminescence signal was detected by using ECL kit and quantified using ImageJ software.
On the technique in general: In western blotting, separated proteins are transferred to a membrane and probed.

The test system of series [4] is 3×Tg mice. The series is described as follows: Morris-water maze. The note with it: 50 mg/kg oral 7 months. The method, then: Homozygous 3×Tg mice (APP KM670/671NL (Swedish), MAPT P301L, PSEN1 M146V) were produced in Hong Kong Baptist University animal house and maintained at 23±2° C. temperature, 60±15% relative humidity with free access to food and water ad libitum. Seven months old WT (129/SvJ, n=6 for male mice; n=10 for female mice) and 3×Tg mice (n=6 for male mice; n=10 for female mice) were treated daily with vehicle (1% CMC-Na; Sigma-Aldrich, C5678]), curcumin analogue C1 (2.5 mg/kg, 5 mg/kg, 10 mg/kg) or curcumin (50 mg/kg; Sigma-Aldrich, 08511) suspended in 1% CMC-Na by oral gavage for 7 months. 3×Tg mice were treated with the indicated compounds for 7 months and Morris-water maze (MWM) was used to evaluate the spatial learning memory. MWM is a circular water (21±1° C.) container with 1 meter diameter. Animals were pre-quarantined and acclimatized to the experimenting room at least 1 week before the start of the experiment. The experiment was started with one day visual platform trial. Each mouse underwent 4 visible platform trails (each trial 60 seconds) with different platform placement, positioned above the water level. Hidden platform training was conducted after mixing a non-toxic paint in the water. Mice were trained for 6 continuous days, each day composed of different session with 4 hidden platform trials (each trial 60 seconds). Each session was designed with randomized animal introduction pattern into the water maze with unchanged platform position. Each trial was conducted with 30 min inter-trial interval and provided with external cues. To assess the long term spatial memory retrieval a probe trial (60 seconds) was conducted 24 h after the last training session. During probe trial water maze was divided into 4 quadrants. The hidden platform in the target quadrant was removed after determining its location. Ethnovision XT software was used to observe and record the swimming pattern. During hidden platform training sessions, time spent to find the platform was taken as a parameter to evaluate memory acquisition. In probe trial percentage of time spent in the target quadrant compared to the other 3 quadrants was calculated.

Series [5] concerns APP, CTFs, phosphorylated Tau, total Tau, TFEB, LC3-II. The series is described as follows: Western blotting of hippocampus, female 3×Tg mice. Particulars: 50 mg/kg oral 7 months. The procedure: as §1, §2
Series [6] has as its system 3×Tg mice. The series is described as follows: Open-field test. Particulars: 3×Tg mice, 50 mg/kg oral 7 months. The method, then:
Homozygous 3×Tg mice (APP KM670/671NL (Swedish), MAPT P301L, PSEN1 M146V) were produced in Hong Kong Baptist University animal house and maintained at 23±2° C. temperature, 60±15% relative humidity with free access to food and water ad libitum. Seven months old WT (129/SvJ, n=6 for male mice; n=10 for female mice) and 3×Tg mice (n=6 for male mice; n=10 for female mice) were treated daily with vehicle (1% CMC-Na; Sigma-Aldrich, C5678]), curcumin analogue C1 (2.5 mg/kg, 5 mg/kg, 10 mg/kg) or curcumin (50 mg/kg; Sigma-Aldrich, 08511) suspended in 1% CMC-Na by oral gavage for 7 months. 3×Tg mice were treated with the indicated compounds for 7 months and then the open-field test was performed to evaluate the exploratory behavior in novel environment. The experiment was conducted 30 min after last dosing time. Mice placed in the center of an empty open field (25 cm×25 cm) were allowed to explore the environment for 5 min without any external disturbance. Ethnovision XT software was used to measure the patterns of movement, time spent in the center and margin, velocity, distance traveled as indicators of agility and exploration.

For series [7], the system named is 5×FAD mice. The series is described as follows: Contextual fear conditioning. The note with it: 50 mg/kg oral daily 4 months, P<0.05. The procedure: Male 5×FAD mice were purchased from Jackson laboratories (Stock number 006554) and maintained at 23±2° C. temperature, 60±15% relative humidity with free access to food and water ad libitum. 5×FAD male mice were inbred with wild-type (WT, C57/BL6) female mice to produce heterozygous offspring. Offspring were genotyped to select 5×FAD (APP KM670/671NL (Swedish), APP I716V (Florida), APP V717I (London), PSEN1 M146L (A>C), PSEN1 L286V) gene mutations mice. Two months old WT and 5×FAD mice (male and female, n=10-14 per group) were treated daily with vehicle (1% sodium carbonyl methylcellulose [CMC-Na; Sigma-Aldrich, C5678]), curcumin analogue C1 (5 mg/kg, 10 mg/kg) or curcumin (50 mg/kg; Sigma-Aldrich, 08511) suspended in 1% CMC-Na by oral gavage for 4 months.
Contextual fear conditioning (CFC) was used to evaluate the fear memory reconsolidation of 5×FAD mice after treatment. The experiment was conducted 30 min after the drug treatment in ANY maze fear conditioning system under licensed ANY maze tracking system connected to a Windows XP computer. A digital camera was installed on each chamber and signals were sent to the computer for analysis. The experiments were conducted in two sound proof chambers. All the experiments were conducted with continuous 40 units of white noise and 40 lux white light. During training, mice were allowed to explore the platform for 2.5 min and then received 3 repeated footshock cycles (30 s) at 30 s intervals, each started with a cue tone (28 s, 1500 Hz) and ended by a footshock ([…], 2 s). On the second day the mice were allowed to explore the platform for 3 min followed by a cue tone (30 s, 1500 Hz) without footshock, and the freezing time was recorded. Contextual fear memory formation and the subsequent remote memory stabilization were evaluated by scoring freezing index (the absence of all but respiratory movement).

Setting [8] is: 5×FAD mice, male and female, 50 mg/kg oral 4 months.

With `COc1cc(/C=C/C(=O)CC(=O)/C=C/c2ccc(O)c(OC)c2)ccc1O` [curcumin, Curcumin, reference compound], in series [1], the Tmax was 1 h. Besides, the Cmax in series [1] (read-out: maximum concentration (Cmax) in the brain) is 73.77 ± 0.24 ng/g. Besides, in series [2], the Aβ load result is given as “no significant reduction”. For the same molecule, in series [3] (setting [8]), the “LC3-II levels in brain (autophagy enhancement)” value was “increase in LC3-II levels”, the “levels of A3 in brain” value was “significantly reduced” and the “levels of APP CTFs in brain” value is recorded as “significantly reduced”. In series [3] (female 5×FAD mice, oral 4 months), the “Fl-APP levels in brain” value is “reduced Fl-APP levels”. In addition, in series [4], the “percentage of time spent in the target quadrant, probe trial, vs vehicle” value was “significantly increased”. Moreover, the CTFs entry in series [5] was “no significant reduction”. The “levels of phosphorylated Tau (PHF1, AT8)” value in series [5] (hippocampus) is “significantly decreased”. Moreover, in series [6], the “improvement in the open field test” value was “no significant improvement”. In series [7], the “freezing index (memory reconsolidation) vs vehicle” value was “significant memory reconsolidation”.

As a reminder, the Tmax is the time at which the peak concentration occurs.

The record behind these values is patent US10987319B2, “TFEB activator C1 ameliorates app and tau pathology and rescues cognitive deficits in neurodegenerative diseases” (Hong Kong Baptist University, priority 2018, dated 2021).
